Assay results reported in PMC12472322, “Structure–Activity Relationship Study of 3-Alkynyl-6-aryl-isothiazolo[4,3-b]pyridines as Dual Inhibitors of the Lipid Kinases PIKfyve and PIP4K2C” (Pharmaceuticals, 2025).

Tests used:
PIKfyve = target: T1, PIKfyve (Homo sapiens, UniProt Q9Y2I7); test: biochemical PIKfyve mobility shift assay (Nanosyn)
T1 construct: purchased Nanosyn, Santa Clara, CA, USA (contract assay service)

VEEV (TC-83) = test: microbe, parasite or virus in culture; assay type: cell-based; conditions: Venezuelan equine encephalitis virus, U-87 MG, 18 h, read-out: VEEV (TC-83) EC50
[1] = cell viability (AlamarBlue) in SARS-CoV-2-infected Vero E6/TMPRSS2 cells; assay type: cell-based; conditions: African green monkey, Vero E6/TMPRSS2 cells infected with SARS-CoV-2, half-maximal cytotoxic concentration, read-out: SARS-CoV2 CC50
U-87 MG cells = conditions: half-maximal cytotoxic concentration
PIP4K2C = target: T2, PIP4K2C (Homo sapiens, UniProt Q8TBX8); test: PIP4K2C binding assay (DiscoverX/Kinome platform)
T2 sequence (Q8TBX8 1-421): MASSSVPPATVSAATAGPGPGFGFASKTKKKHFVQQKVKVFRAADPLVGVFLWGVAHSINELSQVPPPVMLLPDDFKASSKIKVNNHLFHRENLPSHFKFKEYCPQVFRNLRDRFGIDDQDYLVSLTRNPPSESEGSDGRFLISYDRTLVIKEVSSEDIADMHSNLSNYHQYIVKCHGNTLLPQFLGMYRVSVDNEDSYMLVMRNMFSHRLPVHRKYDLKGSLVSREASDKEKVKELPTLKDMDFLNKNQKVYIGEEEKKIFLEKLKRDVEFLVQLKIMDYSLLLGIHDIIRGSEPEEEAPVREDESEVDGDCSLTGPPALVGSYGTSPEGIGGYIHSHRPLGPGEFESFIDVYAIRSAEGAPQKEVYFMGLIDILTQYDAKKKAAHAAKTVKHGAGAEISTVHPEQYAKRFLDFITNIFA

Capan-1 = test: cell proliferation assay (MTS, 72 h); conditions: Homo sapiens, CAPAN-1, 72 h, read-out: CC50 Capan-1
HCT-116 = test: cell proliferation assay (MTS, 72 h); conditions: Homo sapiens, HCT-116, 72 h, read-out: CC50 HCT-116
LN-229 = test: cell proliferation assay (MTS, 72 h); conditions: Homo sapiens, LN-229, 72 h, read-out: CC50 LN-229
NCI-H460 = test: cell proliferation assay (MTS, 72 h); conditions: Homo sapiens, NCI-H460, 72 h, read-out: CC50 NCI-H460
DND-41 = test: cell proliferation assay (MTS, 72 h); conditions: DND41, 72 h, read-out: CC50 DND-41
HL-60 = test: cell proliferation assay (MTS, 72 h); conditions: Homo sapiens, HL-60, 72 h, read-out: CC50 HL-60
K-562 = test: cell proliferation assay (MTS, 72 h); conditions: Homo sapiens, K562, 72 h, read-out: CC50 K-562
Z-138 = test: cell proliferation assay (MTS, 72 h); conditions: Homo sapiens, Z-138, 72 h, read-out: CC50 Z-138
SARS-CoV-2 = test: microbe, parasite or virus in culture; assay type: cell-based, severe acute respiratory syndrome coronavirus 2; conditions: for EC50: Severe acute respiratory syndrome coronavirus 2, VeroE6/TMPRSS2, 24 h, read-out: SARS-CoV2 EC50

T1 sequence (Q9Y2I7 whole entry): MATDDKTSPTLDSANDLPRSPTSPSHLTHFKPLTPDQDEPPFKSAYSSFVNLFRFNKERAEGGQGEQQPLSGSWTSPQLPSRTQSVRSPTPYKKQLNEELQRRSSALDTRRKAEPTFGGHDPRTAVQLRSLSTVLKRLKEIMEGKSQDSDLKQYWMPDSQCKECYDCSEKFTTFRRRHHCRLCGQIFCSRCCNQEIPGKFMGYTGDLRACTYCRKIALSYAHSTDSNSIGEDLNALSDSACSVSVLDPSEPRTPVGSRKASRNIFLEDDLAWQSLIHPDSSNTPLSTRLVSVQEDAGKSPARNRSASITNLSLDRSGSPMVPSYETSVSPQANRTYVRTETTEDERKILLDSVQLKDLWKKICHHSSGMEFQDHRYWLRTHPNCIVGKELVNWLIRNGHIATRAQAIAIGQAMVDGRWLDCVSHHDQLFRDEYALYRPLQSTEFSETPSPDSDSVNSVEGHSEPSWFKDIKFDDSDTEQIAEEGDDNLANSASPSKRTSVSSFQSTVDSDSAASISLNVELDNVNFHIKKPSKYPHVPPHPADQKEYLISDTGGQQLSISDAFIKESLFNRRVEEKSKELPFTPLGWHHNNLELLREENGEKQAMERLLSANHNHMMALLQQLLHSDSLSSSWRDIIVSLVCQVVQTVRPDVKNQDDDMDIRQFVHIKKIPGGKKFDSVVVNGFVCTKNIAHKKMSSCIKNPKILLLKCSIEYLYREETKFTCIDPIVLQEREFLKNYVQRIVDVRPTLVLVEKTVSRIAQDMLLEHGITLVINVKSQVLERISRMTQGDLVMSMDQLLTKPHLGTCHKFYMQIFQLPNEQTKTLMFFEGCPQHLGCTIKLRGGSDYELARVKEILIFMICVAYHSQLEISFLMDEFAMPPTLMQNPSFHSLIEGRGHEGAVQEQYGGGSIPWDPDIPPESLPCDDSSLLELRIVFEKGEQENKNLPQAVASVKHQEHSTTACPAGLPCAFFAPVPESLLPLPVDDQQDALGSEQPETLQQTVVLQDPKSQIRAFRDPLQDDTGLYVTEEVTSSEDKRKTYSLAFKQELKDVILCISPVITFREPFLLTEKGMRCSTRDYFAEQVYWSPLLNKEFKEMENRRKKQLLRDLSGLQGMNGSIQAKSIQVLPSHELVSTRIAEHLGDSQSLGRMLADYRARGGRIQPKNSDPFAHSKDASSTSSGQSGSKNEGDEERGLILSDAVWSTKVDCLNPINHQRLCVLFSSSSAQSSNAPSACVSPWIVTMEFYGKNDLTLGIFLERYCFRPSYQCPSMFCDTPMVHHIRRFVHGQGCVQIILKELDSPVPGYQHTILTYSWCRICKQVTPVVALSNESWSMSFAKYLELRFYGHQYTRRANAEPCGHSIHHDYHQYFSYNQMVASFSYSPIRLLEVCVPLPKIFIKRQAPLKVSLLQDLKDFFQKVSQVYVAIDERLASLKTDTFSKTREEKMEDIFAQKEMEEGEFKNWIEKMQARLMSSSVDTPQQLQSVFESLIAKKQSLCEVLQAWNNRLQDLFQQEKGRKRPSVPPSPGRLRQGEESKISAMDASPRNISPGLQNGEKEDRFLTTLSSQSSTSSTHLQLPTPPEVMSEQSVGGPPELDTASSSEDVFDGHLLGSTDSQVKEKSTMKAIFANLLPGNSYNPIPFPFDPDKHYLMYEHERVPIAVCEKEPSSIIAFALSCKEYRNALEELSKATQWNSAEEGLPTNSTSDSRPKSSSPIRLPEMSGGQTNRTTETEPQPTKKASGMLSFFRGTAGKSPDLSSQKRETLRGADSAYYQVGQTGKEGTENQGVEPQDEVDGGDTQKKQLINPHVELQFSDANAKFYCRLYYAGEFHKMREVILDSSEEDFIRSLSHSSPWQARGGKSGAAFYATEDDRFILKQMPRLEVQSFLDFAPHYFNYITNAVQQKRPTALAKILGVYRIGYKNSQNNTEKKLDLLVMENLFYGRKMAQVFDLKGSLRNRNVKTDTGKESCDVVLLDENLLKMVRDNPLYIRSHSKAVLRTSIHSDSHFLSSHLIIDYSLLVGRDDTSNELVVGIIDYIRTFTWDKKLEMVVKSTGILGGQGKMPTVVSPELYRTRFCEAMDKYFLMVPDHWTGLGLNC

Structure (SMILES)	IC50 (PIKfyve; Table 5 column)	IC50 (PIKfyve; Tables 1-4 and text)	EC50 (VEEV (TC-83))	CC50 [1]	VEEV (TC-83) CC50 (U-87 MG cells)	Kd (PIP4K2C)	CC50 (Capan-1)	CC50 (HCT-116)	CC50 (LN-229)	CC50 (NCI-H460)	CC50 (DND-41)	CC50 (HL-60)	CC50 (K-562)	CC50 (Z-138)	EC50 (SARS-CoV-2)	IC50 (PIKfyve; values given in text in nM)	fold less potent on PIKfyve relative to RMC-113 (PIKfyve; ratio of IC50 values)	SARS-CoV-2 screening, result in words (SARS-CoV-2; Vero E6/TMPRSS2 cells)
COc1cccc(-c2cnc3c(C#Cc4cccnc4)snc3c2)c1 [Compound 3a, 6-(3-Methoxyphenyl)-3-(pyridin-3-ylethynyl)isothiazolo[4,3-b]pyridine]	6.8 nM	6.8 nM	6880 ± 330 nM	< 10000 nM	>10000 nM	190 nM	–	–	–	–	–	–	–	–	–	–	–	–
COc1ccccc1-c1cnc2c(C#Cc3cccnc3)snc2c1 [Compound 3b, 6-(2-Methoxyphenyl)-3-(pyridin-3-ylethynyl)isothiazolo[4,3-b]pyridine]	–	6.8 nM	–	–	–	–	1020 ± 90 nM	1020 ± 1240 nM	3280 ± 1240 nM	2970 ± 750 nM	3920 ± 720 nM	1480 ± 1130 nM	5270 ± 590 nM	1810 ± 690 nM	–	–	–	–
COc1cc(-c2cnc3c(C#Cc4cccnc4)snc3c2)ccc1N [Compound 3f, 2-Methoxy-4-(3-(pyridin-3-ylethynyl)isothiazolo[4,3-b]pyridin-6-yl)aniline]	2.8 nM	2.8 nM	260 ± 80 nM	> 20000 nM	>20000 nM	44 nM	–	–	–	–	–	–	–	–	2740 ± 40 nM	–	–	–
Fc1ccc(-c2cnc3c(C#Cc4cccnc4)snc3c2)cc1 [Compound 3g, 6-(4-Fluorophenyl)-3-(pyridin-3-ylethynyl)isothiazolo[4,3-b]pyridine]	–	10 nM	–	–	–	–	730 ± 230 nM	810 ± 160 nM	4390 ± 940 nM	1460 ± 360 nM	3060 ± 1710 nM	1510 ± 710 nM	5180 ± 480 nM	1030 ± 200 nM	–	–	–	–
Clc1cccc(-c2cnc3c(C#Cc4cccnc4)snc3c2)c1 [Compound 3i, 6-(3-Chlorophenyl)-3-(pyridin-3-ylethynyl)isothiazolo[4,3-b]pyridine]	21 nM	21 nM	–	–	–	180 nM	–	–	–	–	–	–	–	–	–	–	–	–
NC(=O)c1ccc(-c2cnc3c(C#Cc4cccnc4)snc3c2)cc1 [Compound 3m, 4-(3-(Pyridin-3-ylethynyl)isothiazolo[4,3-b]pyridin-6-yl)benzamide]	1.6 nM	1.6 nM	190 ± 1 nM	> 20000 nM	>20000 nM	41 nM	2410 ± 940 nM	340 ± 780 nM	3230 ± 780 nM	2900 ± 1720 nM	2250 ± 190 nM	1000 ± 570 nM	6530 ± 460 nM	960 ± 300 nM	1820 ± 940 nM	–	–	–
COCCNC(=O)c1cccc(-c2cnc3c(C#Cc4cccnc4)snc3c2)c1 [Compound 3s, N-(2-Methoxyethyl)-3-(3-(pyridin-3-ylethynyl)isothiazolo[4,3-b]pyridin-6-yl)benzamide]	1.9 nM	1.9 nM	400 ± 80 nM	> 20000 nM	>10000 nM	30 nM	–	–	–	–	–	–	–	–	5650 ± 1490 nM	–	–	–
COc1cc(-c2cnc3c(C#Cc4cccnc4)snc3c2)ccc1C(=O)O [Compound 4, 2-Methoxy-4-(3-(pyridin-3-ylethynyl)isothiazolo[4,3-b]pyridin-6-yl)benzoic acid]	49 nM	49 nM	8700 ± 1700 nM	> 20000 nM	>10000 nM	68 nM	–	–	–	–	–	–	–	–	360 ± 190 nM	–	–	–
C(#Cc1snc2cc(-c3ccc(OCCN4CCCC4)cc3)cnc12)c1cccnc1 [Compound 5b, 3-(Pyridin-3-ylethynyl)-6-(4-(2-(pyrrolidin-1-yl)ethoxy)phenyl)isothiazolo[4,3-b]pyridine]	–	5.5 nM	710 ± 90 nM	> 20000 nM	>10000 nM	–	–	–	–	–	–	–	–	–	1420 ± 140 nM	–	–	–
COc1ccc(-c2cnc3c(C#Cc4ccccc4F)snc3c2)cc1OC [Compound 7e, 6-(3,4-Dimethoxyphenyl)-3-((2-fluorophenyl)ethynyl)isothiazolo[4,3-b]pyridine]	62 nM	62 nM	16800 ± 1250 nM	15700 ± 1340 nM	>20000 nM	280 nM	–	–	–	–	–	–	–	–	550 ± 150 nM	–	–	–
COc1ccc(-c2cnc3c(C#Cc4cncc(C)c4)snc3c2)cc1OC [Compound 7i, 6-(3,4-Dimethoxyphenyl)-3-((5-methylpyridin-3-yl)ethynyl)isothiazolo[4,3-b]pyridine]	–	2 nM	–	–	–	–	14600 ± 2970 nM	≥ 74000 nM	> 100000 nM	> 100000 nM	> 100000 nM	> 100000 nM	> 100000 nM	70200 ± 2550 nM	–	2 nM	–	–
COC(=O)c1cncc(C#Cc2snc3cc(-c4ccc(OC)c(OC)c4)cnc23)c1 [Compound 7m, Methyl 5-((6-(3,4-dimethoxyphenyl)isothiazolo[4,3-b]pyridin-3-yl)ethynyl)nicotinate]	–	120 nM	1160 ± 1 nM	> 20000 nM	>10000 nM	–	–	–	–	–	–	–	–	–	2560 ± 860 nM	–	–	–
COc1ccncc1C#Cc1snc2cc(-c3ccc(OC)c(OC)c3)cnc12 [Compound 7o, 6-(3,4-Dimethoxyphenyl)-3-((4-methoxypyridin-3-yl)ethynyl)isothiazolo[4,3-b]pyridine]	19 nM	19 nM	920 ± 80 nM	< 10000 nM	7690 ± 1 nM	230 nM	–	–	–	–	–	–	–	–	–	–	–	–
COc1ccc(-c2cnc3c(C#Cc4cnccc4C)snc3c2)cc1OC [Compound 7p, 6-(3,4-Dimethoxyphenyl)-3-((4-methylpyridin-3-yl)ethynyl)isothiazolo[4,3-b]pyridine]	–	33 nM	4010 ± 130 nM	> 20000 nM	>10000 nM	–	> 100000 nM	> 100000 nM	> 100000 nM	> 100000 nM	> 100000 nM	> 100000 nM	> 100000 nM	12300 ± 1770 nM	830 ± 60 nM	–	–	–
COc1ccc(-c2cnc3c(C#Cc4ccc(C#N)nc4)snc3c2)cc1OC [Compound 7q, 5-((6-(3,4-Dimethoxyphenyl)isothiazolo[4,3-b]pyridin-3-yl)ethynyl)picolinonitrile]	–	> 10000 nM	–	–	–	> 30000 nM	–	–	–	–	–	–	–	–	–	–	–	–
COc1ccc(-c2cnc3c(C#Cc4cncc(F)c4)snc3c2)cc1OC [Compound 7r, 6-(3,4-Dimethoxyphenyl)-3-((5-fluoropyridin-3-yl)ethynyl)isothiazolo[4,3-b]pyridine]	98 nM	98 nM	1850 ± 120 nM	> 20000 nM	>10000 nM	110 nM	–	–	–	–	–	–	–	–	1920 ± 520 nM	–	–	–
COc1ccc(-c2cnc3c(C#Cc4cnc5ccccc5c4)snc3c2)cc1OC [Compound 7w, 6-(3,4-Dimethoxyphenyl)-3-(quinolin-3-ylethynyl)isothiazolo[4,3-b]pyridine]	5690 nM	5690 nM	2080 ± 100 nM	< 10000 nM	>10000 nM	2000 nM	–	–	–	–	–	–	–	–	–	–	700 fold	only cytotoxicity was observed
Ic1cccc(/C=N/Nc2nc(N3CCOCC3)nc(N(c3ccccc3)c3ccccc3)n2)c1 [Vacuolin-1, reference compound]	–	–	–	–	–	–	900 ± 130 nM	1870 ± 750 nM	6350 ± 1800 nM	1460 ± 160 nM	24100 ± 1210 nM	26400 ± 1480 nM	17200 ± 3080 nM	16600 ± 1310 nM	–	–	–	–
